Assay: mn = molality of the nth substance listed, in mol/kg
Settings: 101 kPa, Liquid; for speed of sound: Sing-around technique in a fixed-path interferometer; for mass density: Vibrating tube method

CCOC(=O)CC(C)=O [ethyl 3-oxobutanoate] + O
Settings	mass density, 288.15 K [kg/m3]	mass density, 293.15 K [kg/m3]	mass density, 298.15 K [kg/m3]	mass density, 303.15 K [kg/m3]	mass density, 308.15 K [kg/m3]	speed of sound, 288.15 K [m/s]	speed of sound, 293.15 K [m/s]	speed of sound, 298.15 K [m/s]	speed of sound, 303.15 K [m/s]	speed of sound, 308.15 K [m/s]
m1 = 0.076	1000.05	999.128	997.91	996.474	994.809	1472.6	1487.8	1501.3	1513	1523.1
m1 = 0.1625	1001.1	1000.13	998.838	997.358	995.64	1479.2	1493.6	1506.4	1517.4	1526.9
m1 = 0.2495	1002.14	1001.1	999.76	998.22	996.445	1485.5	1499.2	1511.2	1521.6	1530.4
m1 = 0.3767	1003.62	1002.48	1001.05	999.44	997.59	1494.1	1506.7	1517.7	1527.1	1535
m1 = 0.4725	1004.7	1003.48	1002	1000.32	998.41	1500	1511.7	1522	1530.8	1538.1
m1 = 0.5324	1005.38	1004.1	1002.58	1000.86	998.9	1503.4	1514.7	1524.5	1532.9	1539.8
m1 = 0.6848	1007.03	1005.6	1004	1002.18	1000.12	1511.6	1521.7	1530.5	1537.8	1543.7
m1 = 0.7843	1008.1	1006.56	1004.9	1003.01	1000.9	1516.3	1525.7	1533.7	1540.4	1545.8
m1 = 0.9019	1009.31	1007.65	1005.93	1003.94	1001.76	1521.4	1529.9	1537.2	1543.1	1547.8

COC(=O)CC(C)=O [methyl 3-oxobutanoate] + O
Settings	mass density, 288.15 K [kg/m3]	mass density, 293.15 K [kg/m3]	mass density, 298.15 K [kg/m3]	mass density, 303.15 K [kg/m3]	mass density, 308.15 K [kg/m3]	speed of sound, 288.15 K [m/s]	speed of sound, 293.15 K [m/s]	speed of sound, 298.15 K [m/s]	speed of sound, 303.15 K [m/s]	speed of sound, 308.15 K [m/s]
m1 = 0.0809	1000.36	999.43	998.205	996.78	995.12	1472.5	1487.7	1501.3	1513.1	1523.2
m1 = 0.1654	1001.65	1000.66	999.37	997.9	996.2	1477.3	1491.9	1504.8	1516.1	1525.7
m1 = 0.285	1003.44	1002.36	1001	999.454	997.68	1484.7	1498.3	1510.5	1521	1529.9
m1 = 0.386	1004.9	1003.75	1002.33	1000.73	998.91	1490.1	1503.1	1514.6	1524.4	1532.7
m1 = 0.4607	1005.98	1004.75	1003.3	1001.65	999.79	1494.2	1506.6	1517.6	1527	1534.9
m1 = 0.5604	1007.37	1006.06	1004.56	1002.85	1000.94	1499.6	1511.4	1521.7	1530.5	1537.9
m1 = 0.6367	1008.4	1007.01	1005.53	1003.74	1001.79	1503	1514.2	1524.1	1532.5	1539.5
m1 = 0.7871	1010.4	1008.9	1007.35	1005.47	1003.45	1509.8	1520.2	1529.1	1536.7	1542.9
m1 = 0.8429	1011.13	1009.58	1008	1006.11	1004.04	1512.2	1522.2	1530.9	1538.1	1544

Reference: the NIST ThermoML archive (doi:10.1021/je4009987)
